Key:
Format in all cases: biochemical
[1] = target: T1, recombinant human DPP8 (Homo sapiens, UniProt Q6V1X1); experiment: DPP8 inhibition, fluorogenic substrate Z-Ala-Pro-AMC; conditions: recombinant human DPP8
T1 construct: purchased PBS Bioscience
Procedure, shortened: (§1)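 Inhibitors are titrated in an 8-point series into the enzyme's assay buffer (DMSO no more than 0.5%). Substrate cleavage at 25 °C is followed by fluorescence, excitation 380 nm and emission 460 nm. IC50 values come from a four-variable logistic model.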

[2] = target: T2, recombinant human DPP7 (Homo sapiens, UniProt Q9UHL4); experiment: DPP7 inhibition, fluorogenic substrate Lys-Pro-AMC; conditions: recombinant human DPP7
T2 construct: purchased R&D Systems
Procedure, shortened: as §1

[3] = target: T3, Recombinant human FAP (Homo sapiens, UniProt Q12884); experiment: FAP inhibition, fluorogenic substrate Z-Gly-Pro-AMC; conditions: recombinant human FAP, substrate Z-Gly-Pro-AMC
T3 construct: purchased R&D systems
T3 sequence (Q12884 1-760): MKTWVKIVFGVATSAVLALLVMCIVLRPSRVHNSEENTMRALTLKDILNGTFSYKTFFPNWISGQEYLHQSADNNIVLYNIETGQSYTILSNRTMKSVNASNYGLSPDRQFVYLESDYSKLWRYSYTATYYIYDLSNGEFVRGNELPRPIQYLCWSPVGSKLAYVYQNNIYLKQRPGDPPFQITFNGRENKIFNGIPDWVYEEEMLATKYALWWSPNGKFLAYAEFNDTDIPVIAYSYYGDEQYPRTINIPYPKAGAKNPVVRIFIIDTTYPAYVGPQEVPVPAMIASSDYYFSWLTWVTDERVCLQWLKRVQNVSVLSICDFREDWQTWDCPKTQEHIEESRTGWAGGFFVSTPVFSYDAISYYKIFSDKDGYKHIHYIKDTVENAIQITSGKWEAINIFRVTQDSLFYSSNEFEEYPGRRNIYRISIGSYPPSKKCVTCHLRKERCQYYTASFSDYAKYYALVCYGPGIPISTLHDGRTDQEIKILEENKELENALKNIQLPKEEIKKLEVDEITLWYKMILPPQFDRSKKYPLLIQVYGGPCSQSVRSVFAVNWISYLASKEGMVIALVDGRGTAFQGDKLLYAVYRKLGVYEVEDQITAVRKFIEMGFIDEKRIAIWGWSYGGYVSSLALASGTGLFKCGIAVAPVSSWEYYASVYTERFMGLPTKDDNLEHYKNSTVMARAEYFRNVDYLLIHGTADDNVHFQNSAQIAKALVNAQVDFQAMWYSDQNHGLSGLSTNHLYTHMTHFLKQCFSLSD
Procedure, shortened: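 Eight-point compound dilutions (≤0.1% DMSO) were incubated at 25° C with 10 ng recombinant human FAP in Tris pH 7.5/1 M NaCl/BSA buffer and Z-Gly-Pro-AMC. Inhibition was taken as % drop in fluorescence rate (380/460 nm) against uninhibited control; IC50 came from a four-parameter logistic fit.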

[4] = target: T4, recombinant human DPP9 (Homo sapiens, UniProt Q86TI2); experiment: DPP9 inhibition, fluorogenic substrate H-Gly-Pro-AMC; conditions: recombinant human DPP9
T4 construct: purchased R&D Systems
Procedure, shortened: as §1

[5] = target: T5, recombinant human PREP (Homo sapiens, UniProt P48147); experiment: PREP inhibition, fluorogenic substrate Z-Gly-Pro-AMC; conditions: Inhibitory Activity (IC50, nM) PREP, recombinant human PREP
T5 construct: purchased R&D System
T5 sequence (P48147 1-710): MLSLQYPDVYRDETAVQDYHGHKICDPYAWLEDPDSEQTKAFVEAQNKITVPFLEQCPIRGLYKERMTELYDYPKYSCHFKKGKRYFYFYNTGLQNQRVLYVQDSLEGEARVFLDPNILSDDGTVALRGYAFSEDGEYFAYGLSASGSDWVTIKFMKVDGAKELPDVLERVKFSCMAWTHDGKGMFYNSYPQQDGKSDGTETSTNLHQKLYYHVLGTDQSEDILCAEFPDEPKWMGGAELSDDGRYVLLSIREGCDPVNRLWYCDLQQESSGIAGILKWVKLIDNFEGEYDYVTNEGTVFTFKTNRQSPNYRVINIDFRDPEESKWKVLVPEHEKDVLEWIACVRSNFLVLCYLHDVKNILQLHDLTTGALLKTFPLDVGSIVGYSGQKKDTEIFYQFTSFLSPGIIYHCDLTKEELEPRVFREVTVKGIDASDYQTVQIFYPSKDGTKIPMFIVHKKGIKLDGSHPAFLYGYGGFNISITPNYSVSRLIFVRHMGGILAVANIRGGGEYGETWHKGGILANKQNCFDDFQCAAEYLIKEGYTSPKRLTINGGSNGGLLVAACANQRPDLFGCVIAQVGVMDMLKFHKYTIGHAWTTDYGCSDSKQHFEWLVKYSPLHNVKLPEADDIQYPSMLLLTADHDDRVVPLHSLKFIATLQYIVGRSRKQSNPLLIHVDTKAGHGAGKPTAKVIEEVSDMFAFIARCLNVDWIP
Procedure, shortened: as §1

[6] = target: DPP4 (Homo sapiens, UniProt P27487); experiment: DPP4 inhibition, fluorogenic substrate H-Gly-Pro-AMC; design: purchased R&D Systems; conditions: recombinant human DPP4
Sequence of DPP4 (P27487 whole entry): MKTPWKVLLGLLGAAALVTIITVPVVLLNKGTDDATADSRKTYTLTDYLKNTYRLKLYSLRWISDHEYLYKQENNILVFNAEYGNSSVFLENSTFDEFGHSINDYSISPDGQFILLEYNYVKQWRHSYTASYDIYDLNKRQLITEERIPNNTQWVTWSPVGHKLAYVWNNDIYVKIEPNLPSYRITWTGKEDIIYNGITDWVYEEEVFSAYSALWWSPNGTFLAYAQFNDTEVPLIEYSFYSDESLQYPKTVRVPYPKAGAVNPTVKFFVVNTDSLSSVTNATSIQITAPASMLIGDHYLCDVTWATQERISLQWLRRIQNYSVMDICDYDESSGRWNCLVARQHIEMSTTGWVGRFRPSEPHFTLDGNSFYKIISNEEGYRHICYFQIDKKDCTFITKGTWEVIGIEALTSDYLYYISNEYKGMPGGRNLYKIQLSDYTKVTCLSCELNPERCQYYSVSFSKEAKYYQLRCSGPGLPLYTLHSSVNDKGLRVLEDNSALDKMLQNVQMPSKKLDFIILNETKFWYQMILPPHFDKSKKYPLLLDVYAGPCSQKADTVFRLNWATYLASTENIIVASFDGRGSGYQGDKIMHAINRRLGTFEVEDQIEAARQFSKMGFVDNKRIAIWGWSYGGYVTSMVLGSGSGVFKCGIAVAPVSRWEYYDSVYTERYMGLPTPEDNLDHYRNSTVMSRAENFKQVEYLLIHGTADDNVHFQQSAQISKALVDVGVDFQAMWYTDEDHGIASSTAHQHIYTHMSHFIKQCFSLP

T4 sequence (Q86TI2 whole entry): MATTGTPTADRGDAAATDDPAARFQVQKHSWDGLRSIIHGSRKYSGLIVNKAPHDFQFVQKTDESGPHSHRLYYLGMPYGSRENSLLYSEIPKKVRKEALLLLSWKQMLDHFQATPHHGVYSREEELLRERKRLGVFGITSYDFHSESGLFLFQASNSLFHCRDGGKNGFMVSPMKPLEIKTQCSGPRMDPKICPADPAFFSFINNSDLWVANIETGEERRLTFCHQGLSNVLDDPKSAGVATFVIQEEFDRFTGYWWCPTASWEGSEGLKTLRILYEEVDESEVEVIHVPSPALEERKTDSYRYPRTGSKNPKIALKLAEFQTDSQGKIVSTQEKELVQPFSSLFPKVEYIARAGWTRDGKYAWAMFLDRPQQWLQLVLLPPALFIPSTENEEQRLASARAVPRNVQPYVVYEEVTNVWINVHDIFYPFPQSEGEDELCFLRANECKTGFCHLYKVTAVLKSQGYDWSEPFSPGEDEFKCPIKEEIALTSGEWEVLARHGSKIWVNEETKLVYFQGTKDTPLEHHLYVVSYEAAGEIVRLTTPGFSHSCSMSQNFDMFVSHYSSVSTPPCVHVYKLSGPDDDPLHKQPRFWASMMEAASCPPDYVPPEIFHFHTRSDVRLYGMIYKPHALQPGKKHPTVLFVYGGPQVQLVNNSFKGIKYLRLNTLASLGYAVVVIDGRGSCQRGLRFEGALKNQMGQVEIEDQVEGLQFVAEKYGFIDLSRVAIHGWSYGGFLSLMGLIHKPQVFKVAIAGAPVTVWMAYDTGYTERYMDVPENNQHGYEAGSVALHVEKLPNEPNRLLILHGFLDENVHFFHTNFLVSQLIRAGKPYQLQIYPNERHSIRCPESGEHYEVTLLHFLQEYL
T1 sequence (Q6V1X1 whole entry): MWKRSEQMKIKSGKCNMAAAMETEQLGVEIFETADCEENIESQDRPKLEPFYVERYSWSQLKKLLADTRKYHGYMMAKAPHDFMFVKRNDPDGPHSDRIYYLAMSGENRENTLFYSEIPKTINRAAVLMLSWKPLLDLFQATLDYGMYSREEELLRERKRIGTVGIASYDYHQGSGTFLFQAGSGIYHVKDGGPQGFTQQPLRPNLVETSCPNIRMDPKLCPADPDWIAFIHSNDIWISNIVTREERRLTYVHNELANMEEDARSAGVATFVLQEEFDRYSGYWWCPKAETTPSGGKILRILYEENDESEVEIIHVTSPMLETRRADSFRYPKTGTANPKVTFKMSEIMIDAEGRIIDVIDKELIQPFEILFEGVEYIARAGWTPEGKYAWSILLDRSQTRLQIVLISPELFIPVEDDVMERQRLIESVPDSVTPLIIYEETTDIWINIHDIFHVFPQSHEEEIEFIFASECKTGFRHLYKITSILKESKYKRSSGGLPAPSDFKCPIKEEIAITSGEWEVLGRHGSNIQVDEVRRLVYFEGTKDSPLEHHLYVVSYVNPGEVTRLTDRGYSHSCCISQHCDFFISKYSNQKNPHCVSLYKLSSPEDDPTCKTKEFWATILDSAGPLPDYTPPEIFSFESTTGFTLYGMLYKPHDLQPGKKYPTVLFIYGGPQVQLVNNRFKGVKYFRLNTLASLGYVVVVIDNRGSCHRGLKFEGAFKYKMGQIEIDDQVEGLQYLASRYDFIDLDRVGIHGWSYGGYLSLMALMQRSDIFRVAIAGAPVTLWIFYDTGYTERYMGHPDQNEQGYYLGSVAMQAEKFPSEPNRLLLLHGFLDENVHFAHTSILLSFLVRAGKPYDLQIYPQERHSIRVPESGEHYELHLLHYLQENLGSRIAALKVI

IC50 [1] | IC50 [2] | IC50 [3] | IC50 [4] | IC50 [5] | IC50 [6] | SMILES
18.6 µM | 3.31 µM | 0.0026 µM | 8.43 µM | 2470 nM | 1.27 µM | Cc1ccc2ncccc2c1N[C@H]1CCN(CC(=O)N2C[C@@H](F)C[C@H]2C#N)C1 [Example 259, (2S,4S)-4-fluoro-1-[2-[(3S)-3-[(6-methyl-5-quinolyl)amino]pyrrolidin-1-yl]acetyl]pyrrolidine-2-carbonitrile]
20.8 µM | 6.57 µM | 0.002 µM | 9.42 µM | 3940 nM | 1.17 µM | N#C[C@@H]1C[C@H](F)CN1C(=O)CN1CC[C@H](Nc2c(F)ccc3ncccc23)C1 [Example 261, (2S,4S)-4-fluoro-1-[2-[(3S)-3-[(6-fluoro-5-quinolyl)amino]pyrrolidin-1-yl]acetyl]pyrrolidine-2-carbonitrile]
3.01 µM | 0.452 µM | 0.0012 µM | 3.56 µM | 1850 nM | 1.36 µM | Cc1ccc(N[C@H]2CCN(CC(=O)N3C[C@@H](F)C[C@H]3C#N)C2)c2cccnc12 [Example 262, (2S,4S)-4-fluoro-1-[2-[(3S)-3-[(8-methyl-5-quinolyl)amino]pyrrolidin-1-yl]acetyl]pyrrolidine-2-carbonitrile]
> 100 µM | 1.13 µM | 0.0008 µM | 5.42 µM | 1730 nM | 1.24 µM | N#C[C@@H]1C[C@H](F)CN1C(=O)CN1CC[C@H](Nc2ccc(C(F)(F)F)c3ncccc23)C1 [Example 265, (2S,4S)-4-fluoro-1-[2-[(3S)-3-[[8-(trifluoromethyl)-5-quinolyl]amino]pyrrolidin-1-yl]acetyl]pyrrolidine-2-carbonitrile]
7.18 µM | 0.812 µM | 0.0012 µM | 4.92 µM | 2310 nM | 2.84 µM | N#C[C@@H]1C[C@H](F)CN1C(=O)CN1CC[C@H](Nc2cc(F)cc3ncccc23)C1 [Example 269, (2S,4S)-4-fluoro-1-[2-[(3S)-3-[(7-fluoro-5-quinolyl)amino]pyrrolidin-1-yl]acetyl]pyrrolidine-2-carbonitrile]
44 µM | 0.591 µM | 0.0013 µM | 19.2 µM | 10900 nM | > 10 µM | N#C[C@@H]1CCCN1C(=O)CN1CC[C@H](Nc2ccnc3c(C(F)(F)F)cccc23)C1 [Example 270, (2S)-1-[2-[(3S)-3-[[8-(trifluoromethyl)-4-quinolyl]amino]pyrrolidin-1-yl]acetyl]pyrrolidine-2-carbonitrile]
7.99 µM | 0.213 µM | 0.0014 µM | 4.41 µM | 3740 nM | 3.79 µM | N#C[C@@H]1C[C@H](F)CN1C(=O)CN1CC[C@H](Nc2ccnc3c(C(F)(F)F)cccc23)C1 [Example 271, (2S,4S)-4-fluoro-1-[2-[(3S)-3-[[8-(trifluoromethyl)-4-quinolyl]amino]pyrrolidin-1-yl]acetyl]pyrrolidine-2-carbonitrile]

Second part, the compound before the results:

SMILES | IC50 [1] | IC50 [2] | IC50 [3] | IC50 [4] | IC50 [5] | IC50 [6]
COc1ccc2ncccc2c1N[C@H]1CCN(CC(=O)N2C[C@@H](F)C[C@H]2C#N)C1 [Example 260, (2S,4S)-4-fluoro-1-[2-[(3S)-3-[(6-methoxy-5-quinolyl)amino]pyrrolidin-1-yl]acetyl]pyrrolidine-2-carbonitrile] | 20.8 µM | 8.28 µM | 0.0058 µM | 7.71 µM | 6500 nM | 0.741 µM
COc1ccc2nccc(O[C@H]3CCN(CC(=O)N4C[C@@H](F)C[C@H]4C#N)C3)c2c1 [Example 299, (2S,4S)-4-fluoro-1-[2-[(3S)-3-[(6-methoxy-4-quinolyl)oxy]pyrrolidin-1-yl]acetyl]pyrrolidine-2-carbonitrile] | 13.1 µM | 9.84 µM | 0.0017 µM | 8.19 µM | 1410 nM | > 10 µM
COc1cc2nccc(O[C@H]3CCN(CC(=O)N4C[C@@H](F)C[C@H]4C#N)C3)c2cc1OC [Example 300, (2S,4S)-4-fluoro-1-[2-[(3S)-3-[(6,7-dimethoxy-4-quinolyl)oxy]pyrrolidin-1-yl]acetyl]pyrrolidine-2-carbonitrile] | 17.8 µM | 2.93 µM | 0.0019 µM | 12.1 µM | 4890 nM | > 10 µM
N#C[C@@H]1CCCN1C(=O)CN1CCC(NC(=O)c2cccc3cccnc23)CC1 [Example 301, N-[1-[2-oxo-2-[(2S)-2-cyanopyrrolidin-1-yl]ethyl]-4-piperidyl]quinoline-8-carboxamide] | > 100 µM | 1.56 µM | 0.0695 µM | > 100 µM | 36000 nM | 8.13 µM
CN(c1ccc2ncccc2c1)C1CCN(CC(=O)N2CCC[C@H]2C#N)CC1 [Example 310, (2S)-1-[2-[4-[methyl(6-quinolyl)amino]-1-piperidyl]acetyl]pyrrolidine-2-carbonitrile] | > 100 µM | 4.33 µM | 0.0053 µM | 66.4 µM | 740 nM | > 10 µM
CN(c1ccc2cccnc2c1)C1CCN(CC(=O)N2CCC[C@H]2C#N)CC1 [Example 311, (2S)-1-[2-[4-[methyl(7-quinolyl)amino]-1-piperidyl]acetyl]pyrrolidine-2-carbonitrile] | > 100 µM | 2.49 µM | 0.014 µM | 96.9 µM | 4350 nM | > 10 µM
CN(c1cccc2cnccc12)C1CCN(CC(=O)N2CCC[C@H]2C#N)CC1 [Example 313, (2S)-1-[2-[4-[5-isoquinolyl(methyl)amino]-1-piperidyl]acetyl]pyrrolidine-2-carbonitrile] | > 100 µM | > 100 µM | 0.0739 µM | 13.7 µM | 9360 nM | > 10 µM
CN(c1ccc2cnccc2c1)C1CCN(CC(=O)N2CCC[C@H]2C#N)CC1 [Example 314, (2S)-1-(2-(4-(isoquinolin-6-yl(methyl)amino)piperidin-1-yl)acetyl)pyrrolidine-2-carbonitrile] | > 100 µM | 2.47 µM | 0.0087 µM | 34.9 µM | 531 nM | > 10 µM
CN(c1ccc2ncccc2c1)C1CCN(CC(=O)N2C[C@@H](F)C[C@H]2C#N)CC1 [Example 315, (2S,4S)-4-fluoro-1-[2-[4-[methyl(6-quinolyl)amino]-1-piperidyl]acetyl]pyrrolidine-2-carbonitrile] | > 10 µM | 1.05 µM | 0.0017 µM | 5.77 µM | 134 nM | 9.15 µM
CN(c1cnc2ccccc2c1)C1CCN(CC(=O)N2C[C@@H](F)C[C@H]2C#N)CC1 [Example 316, (2S,4S)-4-fluoro-1-[2-[4-[methyl(3-quinolyl)amino]-1-piperidyl]acetyl]pyrrolidine-2-carbonitrile] | > 100 µM | 1.87 µM | 0.0031 µM | 8.2 µM | 500 nM | > 10 µM

Reference: patent US11655235B2, “Pyrrolidine and piperidine compounds” (YUHAN CORPORATION, priority 2019, dated 2023)
